Test results taken from the supplement of paper PMC10307832.

Compound: Cc1ccc(C(=O)Nc2ccc(CN3CCN(C)CC3)c(C(F)(F)F)c2)cc1C#Cc1cnc2cccnn12 [Ponatinib] + CC(C)C[C@H](NC(=O)[C@H](Cc1ccccc1)NC(=O)c1cnccn1)B(O)O [Bortezomib] (partner 0.002 µM)
Experiment: relative viability (nuclei count vs DMSO), 5 days (fraction); higher = more cells survive
Conditions: first compound 0.2 µM
Outline: (§1)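 Lung cancer cell lines in 1536-well plates got either a single drug or a fixed anchor-drug dose together with five library-drug doses (not always all listed) in √10 steps, by pin tool, on the day after seeding. Nuclei were counted after 5 days, and relative viability is the treated-to-vehicle ratio of nuclei counts. Values are medians of duplicate plates.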

First: LC-2-ad
Second: NCI-H1975
The relative viability of the first is higher: 0.875 for the first, 0.36 for the second.

Going from SK-LU-1 to NCI-H661, the relative viability falls from 0.757 to 0.63.

In the case of RERF-LC-KJ, the relative viability is reported as 1.15.

Compound: Cc1ccc(C(=O)Nc2ccc(CN3CCN(C)CC3)c(C(F)(F)F)c2)cc1C#Cc1cnc2cccnn12 [Ponatinib] + CC(=O)Nc1cccc(-n2c(=O)n(C3CC3)c(=O)c3c(Nc4ccc(I)cc4F)n(C)c(=O)c(C)c32)c1 [Trametinib] (partner 0.02 µM)
Experiment: as above
Conditions: first compound 0.002 µM
Outline: as §1

Going from NCI-H650 to NCI-H1651, the relative viability falls from 0.929 to 0.825.

Compared with EPLC-272H, NCI-H1792 is higher in relative viability: 0.271 for the first, 0.312 for the second.

Compared with NCI-H1355, NCI-H322M is higher in relative viability: 0.378 for the first, 0.516 for the second.

First: NCI-H1437
Second: NCI-H1755
The relative viability of the first is lower: 0.413 for the first, 0.755 for the second.

Compared with NCI-H2023, HCC-15 is lower in relative viability: 0.555 for the first, 0.348 for the second.

Compared with EKVX, LC-2-ad is higher in relative viability: 0.328 for the first, 0.809 for the second.

Going from NCI-H1975 to SK-LU-1, the relative viability rises from 0.367 to 0.469.

First: NCI-H661
Second: RERF-LC-KJ
The relative viability of the first is lower: 0.544 for the first, 0.826 for the second.

Same assay, conditions: first compound 0.006325 µM

Going from NCI-H650 to NCI-H1651, the relative viability falls from 0.962 to 0.827.

Going from EPLC-272H to NCI-H1792, the relative viability rises from 0.309 to 0.546.

Compared with NCI-H1355, NCI-H322M is higher in relative viability: 0.429 for the first, 0.555 for the second.

Going from NCI-H1437 to NCI-H1755, the relative viability rises from 0.496 to 0.841.

First: NCI-H2023
Second: HCC-15
The relative viability of the first is higher: 0.625 for the first, 0.381 for the second.

First: PC-3 [JPC-3]
Second: EKVX
The relative viability of the first is higher: 0.769 for the first, 0.338 for the second.

Going from LC-2-ad to NCI-H1975, the relative viability falls from 0.822 to 0.445.

Going from SK-LU-1 to NCI-H661, the relative viability rises from 0.554 to 0.556.

Work on RERF-LC-KJ yielded a relative viability of 0.803.

Same assay, conditions: first compound 0.06325 µM

Compared with NCI-H650, NCI-H1651 is lower in relative viability: 0.949 for the first, 0.918 for the second.

Compared with EPLC-272H, NCI-H1792 is higher in relative viability: 0.345 for the first, 0.54 for the second.

First: NCI-H1355
Second: NCI-H322M
The relative viability of the first is lower: 0.464 for the first, 0.553 for the second.

Going from NCI-H1437 to NCI-H1755, the relative viability rises from 0.741 to 0.761.

First: NCI-H2023
Second: HCC-15
The relative viability of the first is higher: 0.64 for the first, 0.446 for the second.

Going from PC-3 [JPC-3] to EKVX, the relative viability falls from 0.88 to 0.424.

Going from LC-2-ad to NCI-H1975, the relative viability falls from 0.62 to 0.469.

Going from SK-LU-1 to NCI-H661, the relative viability rises from 0.393 to 0.524.

Cell Line RERF-LC-KJ has a relative viability of 1.03.

Same assay, conditions: first compound 0.2 µM

Going from NCI-H650 to NCI-H1651, the relative viability falls from 0.83 to 0.809.

First: EPLC-272H
Second: NCI-H1792
The relative viability of the first is lower: 0.22 for the first, 0.403 for the second.

First: NCI-H1355
Second: NCI-H322M
The relative viability of the first is lower: 0.47 for the first, 0.531 for the second.

Compared with NCI-H1437, NCI-H1755 is higher in relative viability: 0.613 for the first, 0.763 for the second.

First: NCI-H2023
Second: HCC-15
The relative viability of the first is higher: 0.523 for the first, 0.338 for the second.

Going from PC-3 [JPC-3] to EKVX, the relative viability falls from 0.699 to 0.362.

First: LC-2-ad
Second: NCI-H1975
The relative viability of the first is higher: 0.533 for the first, 0.294 for the second.

Compared with SK-LU-1, NCI-H661 is higher in relative viability: 0.347 for the first, 0.453 for the second.

With RERF-LC-KJ the relative viability was 0.852.
